Data on 6 molecules can be found in patent publication US20210308171A1, “METHODS FOR COMBINATORIAL SCREENING AND USE OF THERAPEUTIC TARGETS THEREOF” (THE BROAD INSTITUTE, INC., priority 2018, published 2021).

The subject of one assay is 293T cells. Kind of assay: SaCas9 tiling library 6-thioguanine resistance screen. It is filed as cell-based. As for the experimental part:
FIG. 10—Development of SaCas9 on-target rules. (a) Representation of all SaCas9 sgRNAs tested according to group and gene. sgRNAs are grouped based on whether the target gene is assayed by 6-thioguanine resistance, cell viability, or vemurafenib resistance. Control sgRNAs are also indicated. (b) Log 2 fold change of sgRNAs relative to their starting abundance in the plasmid DNA library in cell viability and resistance experiments. That knockout of NUDTS confers 6-thioguanine resistance in 293T cells but not A375 cell is expected based on previous results^16. P-values: Kruskal-Wallis test with Dunn's multiple comparisons test for each gene relative to the set of non-targeting controls. Significance labels: ns, not significant; *P<0.05; **P<0.01; ***P<0.001; ****P<0.0001.
Applicants designed a second tiling library with all sgRNAs with an NNGRR PAM that targeted 9 genes with known phenotypes in viability and drug resistance assays, a total of 5,327 sgRNAs, including controls (FIG. 10a). Applicants performed viability screens in three cell lines (A375, 293T, MOLM13), and screened relevant cell lines for 6-thioguanine (A375, 293T) and vemurafenib resistance (A375).

In assay [1] the test system is Meljuso, OVCAR8, and A549 cells. Put plainly: Cell Titer Glo viability of cells transduced with single SaCas9 sgRNAs (MCL1, BCL2L1, BCL2L2 or controls) and treated with small molecule inhibitors. It is filed as cell-based. Particulars: 3 days; for synergy of small molecule with sgRNAs targeting MCL1 (cell viability): both sgRNAs targeting MCL1, dosed from 1 nM to 1 μM. (In general: Cellular ATP, detected with luciferase, serves as a proxy for viable cell number.)
Method: (b) Validation of genetic interactions with individual gene knockout combined with small molecules. Seven days after transduction with lentivirus expressing individual sgRNAs, cells were incubated with small molecules for three days before assaying viability by Cell Titer Glo. Points represent the average and whiskers represent the maximum and minimum of two replicate wells. […] Cells were incubated with small molecules for three days before assaying viability by Cell Titer Glo (top).
(a) As in FIG. 5b, cells were infected with individual sgRNAs and 7 days post-infection treated with small molecules over a range of doses. Cell viability was determined by Cell Titer Glo after 3 days.
Meljuso, OVCAR8, and A549 cells were transduced with single SaCas9 sgRNAs targeting MCL1, BCL2L1, or BCL2L2, or controls. […] Cells were dosed from 1 nM to 1 μM, and cell viability assessed (FIG. 5b, FIG. 15a).
Meljuso cells were transduced in 12-well plates, as described above, with lentivirus containing a single sgRNA targeting one of the anti-apoptotic genes (BCL2L1, BCL2L2, MCL1) or a control sgRNA either targeting CD81 or containing a run of 6 thymidines. Two days after transduction, cells were selected using puromycin at 1 μg/mL for five days. After puromycin selection, 3,000 cells were seeded into 96-well plates. Across each row of the 96-well plate, a different small molecule was added at 11 log 2-dilutions ranging from 1 μM to approximately 1 nM in duplicate for each of the cell lines. […] After 3 days in the presence of the small molecule, viability of the cell population was assayed by CellTiterGlo (Promega) according to the manufacturer's instructions.

The test system of assay [2] is THP-1 (AML MLL-AF9) cells. Put plainly: BRD4 inhibitor dose response +/- WDR77 KO.
Method: JQ1 dose response+/−WDR77 KO. Octuplicate wells. Repeated with two sgRNAs.
The experiments were performed in octuplicate wells and repeated with two sgRNAs. FIGS. 35 and 36 show AZD5153 dose response curves in THP-1 and MV4-11 cells that are +/−WDR77 knock-out.
Assay [3] concerns MV4-11 (AML MLL-AF4) cells. Kind of assay: BRD4 inhibitor dose response +/- WDR77 KO. It is filed as cell-based. From the text:
FIG. 36—illustrates that WDR77 KO sensitizes MV4-11 (AML MLL-AF4) cells to AZD5153 treatment.

The subject of another assay is Meljuso cells. Put plainly: Apoptosis Big Papi library screen with inhibitors of anti-apoptotic proteins. It is filed as cell-based, human. Particulars: 250 nM, on/off dosing.

Method for Meljuso cells: (e) In Meljuso cells with single gene knockouts, comparison of resistance and sensitization phenotypes for two small molecules. The fold change values are calculated relative to the no drug arm for targeting sgRNAs paired with the 6T and HPRT intron controls. Genes of interest are colored and labeled. (f) Buffering interactions in Meljuso cells for combinations of multidomain apoptotic genes with BH3-only sensitizer genes in different growth conditions. Data from the three small molecules were combined for the final column. Heat map scale is the same as in panel c. (g) Buffering interactions in Meljuso cells for combinations of pro-apoptotic genes and caspase genes in standard growth conditions and the combined data from the three small molecules. Heat map scale is the same as in panel c.
Applicants next analyzed Meljuso cells screened with inhibitors, first examining single gene effects.
To examine combinatorial phenotypes, Applicants combined data across the three BCL2L1 inhibitors, to minimize effects due to molecule-specific mechanism of action.
Infections were conducted as described above for the SynLet library. […] All small molecules were screened at 250 nM with an on/off dosing schedule, in which cells were treated with small-molecule for 4 days and then grown in standard growth conditions for 3 days, and then this cycle was repeated for an additional week. All arms were collected at 21 days post-infection. For Meljuso cells, all three replicates were prepared and sequenced separately.

Turning to `Nc1nc2nc[nH]c2c(=S)[nH]1` [6-thioguanine], the “effect of knockout of NUDTS on response to the drug” value in the assay with 293T cells is “resistance”.

`Cc1c(-c2ccc(N3CCc4cccc(C(=O)Nc5nc6ccccc6s5)c4C3)nc2C(=O)O)cnn1CC12CC3CC(CC(C3)C1)C2` [A-1331852]: the “synergy of small molecule with sgRNAs targeting MCL1 (cell viability)” value in assay [1] is “strongly synergized”.

Take `COc1nnc2ccc(N3CCC(c4ccc(OCCN5CCN(C)C(=O)[C@H]5C)cc4)CC3)nn12` [AZD5153]: the “effect of WDR77 KO on response to treatment” value in assay [2] and in assay [3] was “sensitizes” throughout.

Take `Cc1sc2c(c1C)C(c1ccc(Cl)cc1)=N[C@@H](CC(=O)OC(C)(C)C)c1nnc(C)n1-2` [JQ1]: the “effect of WDR77 KO on response to treatment” value in assay [2] is listed as “sensitizes”.

For `Cc1c(-c2c(-c3ccc(F)o3)sc3ncnc(O[C@H](Cc4ccccc4OCc4ccnn4CC(F)(F)F)C(=O)O)c23)ccc(OCCN2CCN(C)CC2)c1Cl` [S63845], in the assay on Meljuso cells (relative to no drug arm), the “synergy with BCL2L1 knockout (single gene effect in screen)” value is listed as “synergized”. Also, the “synergy of small molecule with sgRNAs targeting BCL2L1 (cell viability)” value in assay [1] (sgRNAs targeting BCL2L1, dosed from 1 nM to 1 μM) is “synergized specifically”.

Regarding `CC1(C)CCC(c2ccc(Cl)cc2)=C(CN2CCN(c3ccc(C(=O)NS(=O)(=O)c4ccc(N[C@H](CCN5CCOCC5)CSc5ccccc5)c(S(=O)(=O)C(F)(F)F)c4)cc3)CC2)C1` [navitoclax], in the assay on Meljuso cells, the “effect of knockout of BAX and PMAIP1 (Noxa) on response to the small molecule” value is “resistance”; the “effect of knockout of BCL2A1 on response to the small molecule” value is listed as “sensitized”. Besides, in the assay with Meljuso cells (relative to no drug arm), the “synergy with MCL1 knockout (single gene effect in screen)” value is “synergized”. Also, the “synergy of small molecule with sgRNAs targeting MCL1 (cell viability)” value in assay [1] is on record as “strongly synergized”.
